Reference: patent US7670613B2, “Androgen modulators” (Pfizer Inc., priority 2004, dated 2010)
Changes are numbered by the printed parent chain. Like-named read-outs stand apart in the source and are kept apart here.

Legend:
hAR = biological target: T1, hAR (Homo sapiens, UniProt P10275); assay: Competitive binding analysis on baculovirus/Sf9 generated hAR extracts with 3H-DHT tracer; details: 1 nM 3H-DHT, one hour at 4° C., mean of multiple tests
T1 construct: made in house; host or cells: baculovirus/Sf9 insect cells
T1 sequence (P10275 1-920): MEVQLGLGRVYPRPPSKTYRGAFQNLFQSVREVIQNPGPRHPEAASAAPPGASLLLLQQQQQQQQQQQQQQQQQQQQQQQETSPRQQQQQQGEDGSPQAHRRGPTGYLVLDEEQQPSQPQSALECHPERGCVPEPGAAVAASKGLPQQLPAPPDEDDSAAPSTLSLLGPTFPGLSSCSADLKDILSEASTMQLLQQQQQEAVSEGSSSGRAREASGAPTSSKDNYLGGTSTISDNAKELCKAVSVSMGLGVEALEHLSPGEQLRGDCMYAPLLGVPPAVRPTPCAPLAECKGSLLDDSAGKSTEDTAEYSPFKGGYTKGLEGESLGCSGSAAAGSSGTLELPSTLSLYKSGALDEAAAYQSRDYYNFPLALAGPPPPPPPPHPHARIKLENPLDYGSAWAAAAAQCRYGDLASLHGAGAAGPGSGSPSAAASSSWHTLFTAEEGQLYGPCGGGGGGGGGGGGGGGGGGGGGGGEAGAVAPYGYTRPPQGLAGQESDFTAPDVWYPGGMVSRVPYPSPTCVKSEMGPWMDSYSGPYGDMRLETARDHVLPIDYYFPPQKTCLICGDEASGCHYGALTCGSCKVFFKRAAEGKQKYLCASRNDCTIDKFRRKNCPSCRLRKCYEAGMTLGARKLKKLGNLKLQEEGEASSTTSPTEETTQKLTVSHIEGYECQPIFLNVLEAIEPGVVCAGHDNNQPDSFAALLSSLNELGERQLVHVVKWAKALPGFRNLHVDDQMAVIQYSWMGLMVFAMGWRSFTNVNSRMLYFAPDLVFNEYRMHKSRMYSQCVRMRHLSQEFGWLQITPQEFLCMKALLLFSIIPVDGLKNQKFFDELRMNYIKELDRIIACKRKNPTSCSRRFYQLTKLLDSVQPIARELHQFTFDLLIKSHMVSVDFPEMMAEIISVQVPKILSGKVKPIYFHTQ
Protocol: The description below describes how the assay was carried out.
Competitive binding analysis was performed on baculovirus/Sf9 generated hAR extracts in the presence or absence of different concentrations of test agent and a fixed concentration of ^3H-dihydrotestosterone (^3H-DHT) as tracer. This binding assay method is a modification of a protocol previously described (Liao S., et. al. J. Steroid Biochem. 20:11-17 1984). Briefly, progressively decreasing concentrations of compounds are incubated in the presence of hAR extract (Chang et al. P.N.A.S. Vol. 89, pp. […], 1992), hydroxylapatite, and 1 nM ^3H-DHT for one hour at 4° C. Subsequently, the binding reactions are washed three times to completely remove excess unbound ^3H-DHT. hAR bound ^3H-DHT levels are determined in the presence of compounds (i.e. competitive binding) and compared to levels bound when no competitor is present (i.e. maximum binding). Compound binding affinity to the hAR is expressed as the concentration of compound at which one half of the maximum binding is inhibited.

androgen receptor = biological target: T2, androgen receptor (Homo sapiens, UniProt P10275, Q868H); assay: AR antagonist cell assay (MDA-MB453-MMTV clone 54-19, luciferase reporter); format: cell-based; details: 100 pM DHT, 17 hr, mean of multiple tests
T2 construct: a human breast tumor cell line expressing androgen receptor; endogenous in cells; host or cells: MDA-MB453-MMTV clone 54-19 (only the MMTV-luciferase reporter was transfected)
T2 sequence (P10275 1-920 Q868H): T1 sequence (P10275 1-920) with Q868H
Protocol: The compounds ability to antagonize the effects of androgen on the androgen receptor were determined in a whole cell assay as described immediately below.
Experimental Procedure for AR Antagonist Cell Assay
This cell line is a stable transfected cell line with MDA-MB453 cell background (a human breast tumor cell line expressing androgen receptor). A MMTV minimal promoter containing ARE was first cloned in front of a firefly luciferase reporter gene. Then the cascade was cloned into transfection vector pUV120puro. Electroporation method was used for transfecting MDA-MB-453 cell. Puromycin resistant stable cell line was selected.
Cell Culture Media and Reagents:
Culture medium: DMEM (high glucose, Gibco cat #: 11960-044), 10% FBS, and 1% L-glutamine
Plating medium: DMEM (phenol red free), 10% charcoal treated HyClone serum, 1% L-glutamine
Assay medium: DMEM (phenol red free), 1% charcoal treated HyClone serum, 1% L-glutamine, and 1% penicillin/streptomycin
3× luciferase buffer: 2% beta-mercaptoethanol, 0.6% ATP, 0.0135% luciferine in cell lysis buffer
• 1. Cells are maintained in culture medium, splitting cells when they reach 80-90% confluence • 2. To test compounds, 10,000 cells/well are plated to opaque 96 cell culture plate in 100 ul/well plating medium, culture for overnight at 37° C. in cell culture incubator • 3. Carefully remove plating medium, then add 80 ul/well of pre-warmed assay medium, add 10 ul/well testing compound (final concentration at) 1000 nM, 200 nM, 40 nM, 8 nM, 1.6 nM, and 0.32 nM), incubate at 37° C. for 30 minutes • 4. Add 10 ul/well freshly prepared DHT (final concentration at 100 pM) to each well, incubate at 37° C. for 17 hr (overnight) • 5.
The results are reported as the mean of multiple tests as described below (the numbers of tests are indicated in the footnote). N.D. denotes that the compound was not tested.

[1] = MDA-MB453-MMTV clone 54-19 cells, read-out: AR Cell IC50
[2] = hAR extract, read-out: AR Binding IC50
[3] = AR Cell IC50, MDA-MB453-MMTV clone 54-19 cells

SMILES | IC50 (hAR; AR Binding IC50, hAR extract) | IC50 (androgen receptor; [1]) | IC50 (hAR; [2]) | IC50 (androgen receptor; [3])
C[C@@H]1CCCC[C@@H]1Oc1ccc(C#N)c(Cl)c1 [Example 40, (1S,2R)-2-Chloro-4-(2-methyl-cyclohexyloxy)-benzonitrile] | 31 nM | 114 nM |  | 
N#Cc1ccc(OC2CCCC2)cc1C(F)(F)F [Example 10] |  | 605 nM | 156 nM | 
N#Cc1ccc(O[C@@H]2CCCC[C@H]2C#N)cc1C(F)(F)F (single isomer, unassigned) [Example 73, (trans)-(+)-4-(2-Cyano-cyclohexyloxy)-2-trifluoromethyl-benzonitrile] | 61 nM | 196 nM |  | 
CCC1CCCCC1Oc1ccc(C#N)c(C(F)(F)F)c1 (centres unmarked) [Example 7, 4-(2-Ethyl-cyclohexyloxy)-2-trifluoromethyl-benzonitrile] |  | 329 nM | 125 nM | 
C[C@H]1CC[C@@H](Oc2ccc(C#N)c(Cl)c2)CC1 [Example 31, 2-Chloro-4-(4-cis-methyl-cyclohexyloxy)-benzonitrile] |  |  | 212 nM | 66 nM
C[C@H]1CCCC[C@@H]1Oc1ccc(C#N)c(Cl)c1 [Example 41, (1S,2S)-2-Chloro-4-(2-methyl-cyclohexyloxy)-benzonitrile] | 18 nM | 46 nM |  | 
N#Cc1ccc(OC2CCCC(O)C2)cc1Cl (centres unmarked) [Example 26, 2-Chloro-4-(3-hydroxy-cyclohexyloxy)-benzonitrile] |  |  | 404 nM | 46 nM
C[C@H]1CCC[C@@H]1Oc1ccc(C#N)c(Cl)c1 [Example 67, (1S,2S)-2-Chloro-4-(2-methyl-cyclopentyloxy)-benzonitrile] | 44 nM | < 0.32 nM |  | 
N#Cc1ccc(OC2CCC2)cc1Cl [Example 68, 2-Chloro-4-cyclobutyloxy-benzonitrile] |  | 103 nM | 297 nM | 
N#Cc1ccc(O[C@H]2CCCC[C@@H]2c2ccccc2)cc1Cl [Example 55, (1S,2R)-2-Chloro-4-(2-phenyl-cyclohexyloxy)-benzonitrile] | 265 nM | 421 nM |  | 
CC1CCCC(C)C1Oc1ccc(C#N)c(Cl)c1 (centres unmarked) [Example 53, 2-Chloro-4-(2,6-dimethyl-cyclohexyloxy)-benzonitrile] | 33 nM | > 1000 nM |  | 
N#Cc1ccc(O[C@H]2CC3CC[C@@H]2C3)cc1Cl (stereo in doubt) [Example 24, 4-(R)-(Bicyclo[2.2.1]hept-2-yloxy)-2-chloro-benzonitrile] | 106 nM |  |  | 15 nM
CO[C@H]1CCCC[C@@H]1Oc1ccc(C#N)c(C(F)(F)F)c1 (relative stereo) [Example 70] |  |  | 158 nM | 10 nM
N#Cc1ccc(OC2CCCCC2)cc1C(F)(F)F [Example 11, 4-Cyclohexyloxy-2-trifluoromethyl-benzonitrile] |  |  | 390 nM | 0.5 nM
CO[C@H]1CCC[C@H]1Oc1ccc(C#N)c(Cl)c1 (relative stereo) [Example 34, 2-Chloro-4-(cis-2-methoxy-cyclopentyloxy)-benzonitrile] | 172 nM | 340 nM |  | 
N#Cc1ccc(OC2CCCCCC2)c(Cl)c1 [Example 43, 3-Chloro-4-cycloheptyloxy-benzonitrile] |  | 12 nM | 289 nM | 
N#Cc1ccc(OC2CCCCC2)cc1Cl [Example 45, 2-Chloro-4-cyclohexyloxy-benzonitrile] |  | 147 nM | 196 nM | 
CC1CCCC(Oc2ccc(C#N)c(Cl)c2)C1C (centres unmarked) [Example 52, 2-Chloro-4-(2,3-dimethyl-cyclohexyloxy)-benzonitrile] | 72 nM | 308 nM |  | 
CC1CCCC(Oc2ccc(C#N)cc2Cl)C1C (single isomer, unassigned) [Example 64, 3-Chloro-4-(2,3-dimethyl-cyclohexyloxy)-benzonitrile] |  | 217 nM | 119 nM | 
CC1CCCC(C)C1Oc1ccc(C#N)c(C(F)(F)F)c1 (centres unmarked) [Example 12, 4-(2,6-Dimethyl-cyclohexyloxy)-2-trifluoromethyl-benzonitrile] | 73 nM | > 1000 nM |  | 
N#Cc1ccc(O[C@@H]2CC3CC[C@@H]2C3)cc1Cl (stereo in doubt) [Example 25, 4-(S)-(Bicyclo[2.2.1]hept-2-yloxy)-2-chloro-benzonitrile] | 82 nM | < 0.32 nM |  | 
N#Cc1ccc(O[C@@H]2CCCC[C@H]2C#N)cc1Cl [Example 50, (1R,2S)-2-Chloro-4-(2-cyano-cyclohexyloxy)-benzonitrile] | 17 nM | 202 nM |  | 
CCCCC1(Oc2ccc(C#N)c(Cl)c2)CCCC1 [Example 21, 4-(1-Butyl-cyclopentyloxy)-2-chloro-benzonitrile] |  | > 1000 nM | 206 nM | 
N#Cc1ccc(OC2CCCC2)cc1Cl [Example 46, 2-Chloro-4-cyclopentyloxy-benzonitrile] | 49 nM | 18 nM |  | 
N#Cc1ccc(OC2CC3CCC2C3)cc1Cl (centres unmarked) [Example 62, 4-(Bicyclo[2.2.1]hept-2-yloxy)-2-chloro-benzonitrile] | 46 nM | < 0.32 nM |  | 
